According to PubChem BioAssay AID588780 (Sanford-Burnham Center for Chemical Genomics, 2011):
Active and inactive are the calls of the source.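 The calls were made as follows: active = compounds whose fitted half-maximal concentration in the cell-protection dose series is at or below a set limit; inactive = the rest.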

Tested on: H9c2 cardiomyocytes, 2-deoxyglucose stress, ATP luminescence, 2 h
Experiment: protection of cardiomyocytes from 2-deoxyglucose injury, dose response, cell-based, 2-deoxyglucose stress, uHTS hits (AID 588780)

SMILES	IC50
NC(=O)c1ccccc1N=Cc1ccccn1	> 79 µM (inactive)
O=c1[nH]nc(Cc2ccccc2)c2ccccc12	> 79 µM (inactive)
COc1cccc(NC(=O)CN(C)C(=O)CCCc2nc3ccccc3c(=O)[nH]2)c1	> 79 µM (inactive)
COc1ccc(-c2ccc3c(c2)S(=O)(=O)c2cccc(C(=O)NC[C@@H]4CCCO4)c2C3=O)cc1OC	12.8 µM
CCOC(=O)C1=C(C)NC(C)=C(C(=O)OCC)C1C(=O)OCC(=O)NC1CCCCC1	6.02 µM
O=C(NO)c1ccc(C(=O)N(C2CCCCC2)C2CCCCC2)cc1	> 79 µM (inactive)
COc1cc2c(C#CCCCO)c(-c3ccsc3)oc(=O)c2cc1OC	> 79 µM (inactive)
Cc1ccc2[nH]c(=O)c(CN(Cc3ccco3)S(=O)(=O)c3c(C)ccc4nsnc34)cc2c1	29.7 µM
Cn1c(=O)c2c(nc(NCc3cccnc3)n2Cc2cccc(C(F)(F)F)c2)n(C)c1=O	> 79 µM (inactive)
COc1ccc(-c2cc(C(F)(F)F)n3nc(C(=O)N4CCN(C(=O)c5ccco5)CC4)cc3n2)cc1	> 79 µM (inactive)
NC(=O)c1ccsc1NC(=O)COC(=O)Cc1n[nH]c(=O)c2ccccc12	> 79 µM (inactive)
CC(=O)c1c(C)n(-c2cccc(Cl)c2)c2ccc(O)cc12	16.8 µM
COc1ccc(OCC(O)Cn2c(Br)nc3c2c(=O)[nH]c(=O)n3C)cc1 (centres undefined)	38.7 µM (inactive)
Cc1cccc(N2CCN(C(=O)CCc3nc4ccccc4c(=O)[nH]3)CC2)c1C	> 79 µM (inactive)
Cc1ccc(C)c(NC(=O)C(Sc2ncnc3ccccc23)c2ccccc2)c1 (centres undefined)	> 79 µM (inactive)
COc1ccccc1OP(=O)(Nc1cccnc1)Oc1ccccc1OC	> 79 µM (inactive)
Cc1[nH]c2ccccc2c1/C=N/NC(=O)c1cc(-c2ccccc2)n[nH]1	> 79 µM (inactive)
CCOC(=O)c1c(NC(=O)COC(=O)Cc2n[nH]c(=O)c3ccccc23)sc(C(=O)NC)c1C	> 79 µM (inactive)
COCCN1Cc2cccc(C(=O)Nc3cccc(-c4nc5ccccc5[nH]4)c3)c2C1=O	> 79 µM (inactive)
CCCNC(=O)c1ccc2c(=O)c(O)c(-c3ccc(F)cc3)[nH]c2c1	> 79 µM (inactive)
O=C(N/N=C/c1ccccn1)c1ccc(NC(=O)c2cccc([N+](=O)[O-])c2)cc1	11.5 µM
Cc1ccc(C(=O)Oc2ccc(Cl)c3cccnc23)cc1[N+](=O)[O-]	> 79 µM (inactive)
O=C1c2ccccc2C(=O)N1CCCCSc1nc2ccccc2c(=O)n1CCCN1CCOCC1	58.6 µM (inactive)
Cc1ccc2cc(C#N)c(N3CCN(C(=O)c4cccs4)CC3)nc2c1	> 79 µM (inactive)

SMILES	IC50
COc1ccc(-c2cnc3c(NC=O)cc(-c4cccc(NS(C)(=O)=O)c4)cn23)cc1OC	14.4 µM
C/C(=N\NC(=O)CCCNc1ccc(C)cc1)c1ccccn1	> 79 µM (inactive)
O=C(COC(=O)Cn1[nH]c(=O)c2ccccc2c1=O)Nc1c(Cl)cccc1C(F)(F)F	> 79 µM (inactive)
CCN(CC)C(=O)CSc1nc2ccccc2c(=O)[nH]1	> 79 µM (inactive)
COc1ccc(NC(=O)N(CCCN(C)C)Cc2cc3cc(OC)ccc3[nH]c2=O)cc1	> 79 µM (inactive)
O=C(CCc1nc2ccccc2c(=O)[nH]1)NNC(=O)c1ccccc1Cl	> 79 µM (inactive)
Cn1c(-c2ccc(Cl)cc2)cnc1N	> 79 µM (inactive)
COc1ccc(NC(=S)N(Cc2cccnc2)Cc2cc3cc(OC)c(OC)cc3[nH]c2=O)cc1	> 79 µM (inactive)
COc1cc(/C=C/c2nc3ccccc3c(=O)n2-c2ccc(O)cc2)ccc1O	9.14 µM
O=C(c1ccoc1)N1CCN(c2cc(-c3ccncc3)nc3cc(-c4cccc(Cl)c4)nn23)CC1	> 79 µM (inactive)
COC(=O)c1cc(Cl)c(NC(=O)/C=C/c2ccc(OC)c(OC)c2)cc1OC	> 79 µM (inactive)
CCOC(=O)c1cnc2ccc(C(=O)OC)cc2c1NCCc1ccc(OC)c(OC)c1	> 79 µM (inactive)
NS(=O)(=O)c1ccc(N=Cc2c(O)n(-c3nccs3)c(=O)c3ccccc23)cc1	> 79 µM (inactive)
COC(=O)c1[nH]c2c(c1C)C(=O)CC(c1cc(OC)ccc1OC)C2 (centres undefined)	> 79 µM (inactive)
NC(=O)c1ccccc1OCC(=O)NC12CC3CC(CC(C3)C1)C2	> 79 µM (inactive)
CCCc1nc2ccccc2c(C(=O)OCc2nnc(-c3cc(OC)c(OC)c(OC)c3)o2)c1CC	11 µM
CCN(CC)C(=O)c1ccc2c3c(cccc13)C(=O)N(CCc1ccc(OC)c(OC)c1)C2=O	11.5 µM
C=CCOC(=O)C1=C[C@H](c2cn(C(C)=O)c3ccccc23)C[C@H](OCc2ccc(CO)cc2)O1	17.9 µM
COc1cc2nc(C3CCC3)nc(N3CCN(c4ccccn4)CC3)c2cc1OC	> 79 µM (inactive)
Cn1nc(C(=O)Nc2nc(-c3ccccn3)cs2)c2ccccc2c1=O	39.6 µM (inactive)
CC(C)N1C(=O)S/C(=C/c2ccc3c(c2)n(C)c(=O)n3C)C1=O	> 79 µM (inactive)
COc1ccc(-c2cc(NC=O)c3ncc(-c4cccc(C(C)=O)c4)n3c2)cc1	> 79 µM (inactive)
COc1ccc2c(c1OC)c(=O)n1c3ccc(OC(C)C(=O)NCCN4CCOCC4)cc3c3ccnc2c31 (centres undefined)	29.3 µM
O=C(Oc1ccc(N(Cc2cccs2)C2=NS(=O)(=O)c3ccccc32)cc1)c1ccccc1Cl	> 79 µM (inactive)

SMILES	IC50
Cc1cccc(C(=O)N/N=C2\CS(=O)(=O)N(C)c3ccsc32)c1	6.21 µM
COc1ccc(Nc2nc(Nc3ccc(OC)cc3OC)nc(N3CCN(C)CC3)n2)c(OC)c1	43.4 µM (inactive)
COc1cc(/C=C/C(=O)Nc2ccc3nc4n(c(=O)c3c2)CCCC4)cc(OC)c1OC	24.2 µM
CN(C)C(=O)c1ccc(-c2n[nH]c(=O)c3ccccc23)cc1	> 79 µM (inactive)
COc1ccc(-c2cc3nc(-c4ccccc4)cc(N4CCN(C(C)=O)CC4)n3n2)cc1	12 µM
O=C(N/N=C/c1ccccn1)c1cc(-c2ccncc2)nc2ccccc12	> 79 µM (inactive)
CC(=O)Oc1ccc2c(C)cc(=O)oc2c1	> 79 µM (inactive)
NC(=O)c1ccc(Nc2nnc(-c3ccc(O)cc3)c3ccccc23)cc1	29.6 µM
Cc1ccc(CN(C)C(=O)COC(=O)CSc2ccc(C(N)=O)cc2[N+](=O)[O-])cc1	31.3 µM (inactive)
COCCCn1c(N)c(C(=O)Nc2sc3c(c2C(=O)OC)CCCC3)c2nc3ccccc3nc21	34 µM (inactive)
O=C(CSc1nc2ccccc2c(=O)[nH]1)N1CCOCC1	> 79 µM (inactive)
O=C(CSc1nnc(-c2cccnc2)o1)c1cc2ccccc2oc1=O	67 µM (inactive)
C[C@@H]1ON(C)[C@H]2C[C@H]3c4[nH]c5ccc(-c6ccc7c(c6)OCO7)cc5c4CCN3C[C@@H]12	54.8 µM (inactive)
Cc1ccc(NC(=O)CSC(C)C(=O)OCc2cc(=O)oc3cc(O)ccc23)cc1 (centres undefined)	> 79 µM (inactive)
CCOC(=O)CNC(=O)CSc1nc2nc(C)c(Br)cc2[nH]1	> 79 µM (inactive)
COc1cc(-c2cnc3c(NC=O)cc(-c4cccc(NC(C)=O)c4)cn23)cc(OC)c1OC	> 79 µM (inactive)
O=c1[nH]c2ccccc2n1CCCN1CCC(n2c(=O)[nH]c3cc(Cl)ccc32)CC1	> 79 µM (inactive)
COc1cc(/C=N/NC(=O)c2cccnc2)ccc1OCC(=O)Nc1ccccc1Cl	> 79 µM (inactive)
COC(=O)c1ccc(OCC(=O)Nc2ccccc2C(=O)NC2CC2)cc1	10.6 µM
Cc1cc(C)c2c(N)c(C(=O)N/N=C/c3cccnc3)sc2n1	19.1 µM
CC(C)Cn1c(N)c(C(=O)COC(=O)CCc2nc3ccccc3c(=O)[nH]2)c(=O)n(C)c1=O	> 79 µM (inactive)
COC(=O)c1ccc(Cn2c(C)c(C(=O)NCc3cccs3)sc2=O)o1	> 79 µM (inactive)
Cc1c(/C=N/NC(=O)c2ccc(O)cc2)c2ccccn2c1C(=O)c1ccc(F)cc1	> 79 µM (inactive)
N#Cc1ccc(OCC(=O)Nc2nc(-c3ccccn3)cs2)cc1	> 79 µM (inactive)

SMILES	IC50
CCOc1ccccc1N1CC(O)=C(c2nc3ccccc3s2)C1=N	> 79 µM (inactive)
COc1ccc(N(CC(=O)NCCSc2ccccc2)S(=O)(=O)c2ccccc2)c(OC)c1	12.3 µM
CCn1nc(C(=O)OCC(=O)c2c[nH]c3ccccc23)c2ccccc2c1=O	11.6 µM
Cc1[nH]c2ccccc2c1/C=N/NC(=O)c1cccs1	40.2 µM (inactive)
CC1(C)Cc2c(C#N)c(SCc3nc4ccccc4[nH]3)nc(N3CCOCC3)c2CO1	> 79 µM (inactive)
c1cc2[nH]snc2c2nc(C3CC3)nc12	10.2 µM
CCOc1cc(/C=C(\C#N)C(=O)Nc2ccc(S(N)(=O)=O)cc2)ccc1OCCN1CCOCC1	> 79 µM (inactive)
O=c1[nH]c2cc(F)ccc2c2ccc(F)cc12	73.6 µM (inactive)
COc1ccc(NC(=O)c2cc3c(=O)n(C)c4ccccc4c3n2C)cc1OC	> 79 µM (inactive)
O=C(CN1CCN(S(=O)(=O)c2ccc(Br)cc2)CC1)c1ccc(O)c(O)c1	19.8 µM
CC(C)C(=O)N1CCN(c2ccc(NC(=O)COc3ccccc3[N+](=O)[O-])cc2)CC1	> 79 µM (inactive)
Cc1ccc(S(=O)(=O)N(C)C)cc1NC(=O)COC(=O)Cc1n[nH]c(=O)c2ccccc12	> 79 µM (inactive)
CCOc1ccc(/C=C/C(=O)c2cc(Br)ccc(=O)c2O)cc1	> 79 µM (inactive)
CCOC(=O)c1ccc(-c2ccc(/C=C(\C#N)C(=O)NCC3CCCO3)o2)cc1 (centres undefined)	> 79 µM (inactive)
Cc1ccc2c(c1)CCCN2C(=O)CCc1nc2ccccc2c(=O)[nH]1	9.06 µM
COC(=O)c1cc(NC(=O)c2cc3ccccc3o2)cc(C(=O)OC)c1	20.5 µM
CCOC(=O)C1=C(COC(=O)/C=C/c2ccc(F)cc2)NC(=O)NC1C (centres undefined)	16.2 µM
Oc1ccc(Br)cc1C=Nc1ccc2c3c(cccc13)CC2	59.1 µM (inactive)
COc1ccc(C2CCCCCN2C(=O)C2CCN(S(=O)(=O)c3cccc(C(C)=O)c3)CC2)cc1 (centres undefined)	> 79 µM (inactive)
CC(C)c1cc(N2CCN(C(=O)c3ccco3)CC2)n2c(nc3ccccc32)c1C#N	28.5 µM
O=C(Cn1nc(C(=O)O)c2ccccc2c1=O)c1c[nH]c2ccccc12	36.3 µM (inactive)
COc1cc2[nH]c(=O)n3nc(-c4ccccc4)nc3c2cc1OC	> 79 µM (inactive)
